# Several values for one entry are separate records, joined by “and”; a condition that tells them apart may be missing. Equal values may be shown once. Read-outs that look alike come from different tables or passages of the source.
# Columns and labels:
# [1] = tested on: acetic acid sensitized male Fisher rats; assay: Visceromotor response to colorectal distension, acetic acid-induced colonic hypersensitivity; format: in vivo, rat; conditions: for visceromotor response (number of abdominal contractions) to CRD compared to vehicle: all doses i.p. (ondansetron 1, 5, 10 mg/kg; nisoxetine 3, 10, 30 mg/kg), all distension pressures
# Procedure: The visceromotor behavioral response to colorectal distension was measured by counting the number of abdominal contractions recorded by a strain gauge sutured onto the abdominal musculature as described in Gunter et al., Physiol. […] A 5 cm latex balloon catheter inserted via the anal canal into the colon was used for colorectal distensions. Constant pressure tonic distensions were performed in a graded manner (15, 30 or 60 mmHg) and were maintained for a period of 10 min and the numbers of abdominal muscle contractions were recorded to measure the level of colonic sensation. A 10 min recovery was allowed between distensions.
# J. Physiol. […] In the present study, a low concentration of acetic acid (1.5 ml, 0.6%) was administered intracolonically to sensitize the colon without causing histological damage to the colonic mucosa as described in previous studies (Gunter et al., supra).
# Injection volume was 0.2 mL using 100% propylene glycol as the vehicle. Three consecutive colorectal distensions at 15, 30 or 60 mmHg applied at 10-min intervals were recorded. Visceromotor responses were evaluated as the number of abdominal muscle contractions recorded during the 10-min periods of colorectal distension.
# Adult male rats were used in the study. […] Specifically, rats were anesthetized with Isoflurane (2%) and were instrumented with a strain gauge force transducer for recording of abdominal muscle contractions. A latex balloon and catheter were inserted 11 cm into the colon. The animals were allowed a 30-min period to completely recover from the anesthesia and were then subjected to intracolonic infusion of acetic acid (1.5 mL, 0.6%). An additional 30-min period was allowed for sensitization of the colon. […] The protocol for colorectal distension was initiated 30-min post drug administration. After a basal reading of the number of abdominal contractions with the balloon inserted but not distended, three consecutive 10-min lasting colorectal distensions at 15, 30, and 60 mmHg were applied at 10-min intervals. Colorectal sensitivity was evaluated by counting the number of reflex abdominal contractions (i.e. the visceromotor response) observed within each distension period.
# Acetic acid-induced colonic hypersensitivity in rats has been described by Langlois et al. and Plourde et al., referenced above.
# The visceromotor behavioral response to colorectal distension was measured by counting the number of abdominal contractions recorded by a strain gauge sutured onto the abdominal musculature as previously described Gunter et al., referenced above. Colorectal distensions were carried out utilizing a 5 cm latex balloon catheter inserted into the colon via the anal canal. Constant pressure tonic distensions were performed in a graded manner, i.e., the pressure was increased to the desired level of 15, 30, or 60 mmHg and then maintained for a period of 10 minutes during which the number of abdominal contractions were recorded to measure the level of colonic sensation. Ten minute recovery periods were allowed following each distension.
# [2] = biological target: T1, noradrenaline transporter ([^3H]NA uptake) (Rattus norvegicus, UniProt Q9WTR4); conditions: read-out: Ki, inhibition of [3H]NA uptake, cited from earlier work
# T1 construct: The [^3H]NA uptake assays are performed on the cortical and hypothalamic synaptosomes; from tissue; host or cells: rat hypothalamic and cortical synaptosomes (P2 fraction)
# [3] = biological target: T2, dopamine reuptake ([^3H]DA uptake) (Rattus norvegicus, UniProt P23977); conditions: synaptosomes from rat striatal tissue; read-out: Ki, inhibition of [3H]DA uptake; cited from earlier work
# T2 construct: the [^3H]DA uptake assays are performed on striatal synaptosomes; from tissue; host or cells: rat striatal synaptosomes (P2 fraction)
# [4] = biological target: T3, 5-HT3 receptor (Mus musculus, UniProt P23979); conditions: radioligand binding; read-out: Ki, affinity for the 5-HT3 receptor; cited from earlier work
# T3 construct: host or cells: N1E-115 mouse neuroblastoma cells
# T3 sequence (P23979 24-489): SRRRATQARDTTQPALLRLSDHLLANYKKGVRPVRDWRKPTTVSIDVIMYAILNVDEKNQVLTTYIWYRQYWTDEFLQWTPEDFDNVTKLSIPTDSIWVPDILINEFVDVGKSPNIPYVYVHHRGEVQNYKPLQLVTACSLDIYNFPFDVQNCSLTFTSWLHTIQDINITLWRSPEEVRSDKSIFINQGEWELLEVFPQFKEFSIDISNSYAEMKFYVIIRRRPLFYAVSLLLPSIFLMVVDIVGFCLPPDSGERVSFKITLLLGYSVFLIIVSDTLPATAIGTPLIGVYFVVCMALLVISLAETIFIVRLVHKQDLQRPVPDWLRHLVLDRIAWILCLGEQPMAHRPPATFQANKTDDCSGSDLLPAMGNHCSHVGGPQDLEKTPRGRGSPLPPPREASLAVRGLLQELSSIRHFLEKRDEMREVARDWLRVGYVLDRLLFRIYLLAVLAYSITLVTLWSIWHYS
# [5] = tested on: male F-344 rats; assay: Small Intestinal Transit (SIT) Rodent Model, charcoal meal; format: in vivo, rat; conditions: for Small intestinal transit, Mean (% of total small intestinal length): 15 min after charcoal meal
# Description: Specifically, the effects of MCI-225, the reference compounds (ondansetron and nisoxetine) and the vehicle on small intestinal transit were investigated in rats under control conditions. Following an overnight fast, rats were brought to the laboratory in their home cages and received an i.p. injection of one of the following: MCI-225, 100% propylene glycol (vehicle), ondansetron, nisoxetine and a combination of ondansetron and nisoxetine. Control rats received no treatment. The treated rats were placed back in the home cages and after 30 min, were fed a 2 mL charcoal meal via an oral gavage. Small intestinal transit was measured following 15 min test-period. Each rat was placed briefly in a glass chamber with IsoFlo for anesthesia and sacrificed. The stomach and the small intestine were removed and the total length of the small intestine was measured. Transit was then measured as the distance that the charcoal meal had traveled along the small intestine and expressed as % of the total length. Animals were randomly assigned to experimental groups and experiments were performed as illustrated in Table 3.
# Small intestinal transit in rats was investigated by the passage of a charcoal meal along the small intestine during a defined time period (15-min). The animals were deprived of food for 12-16 hrs prior to the experiments. Rats were given a charcoal meal (a mixture of charcoal, gum arabic, and distilled water) as a 2 mL oral gavage and were sacrificed after a 15-min test period. The distance traveled by the charcoal meal was quantified as a percent of the small intestinal length, using the following equation:
# Transit (%)=cm traveled by meal/cm total small intestinal length×100
# Small intestinal transit was evaluated in relative units (%) of the total intestinal length in the following groups receiving different drug treatment: naïve (untreated), vehicle (propylene glycol, 200 μL i.p.), MCI-225 (3, 10 and 30 mg/kg, i.p.), nisoxetine (3, 10 and 30 mg/kg, i.p.), ondansetron (1, 5 and 10 mg/kg, i.p.) and a combination of nisoxetine (10 mg/kg, i.p.) and ondansetron (5 mg/kg, i.p.). A total of 61 experiments were performed (4-6 rats per group).
# [6] = biological target: T4, serotonin reuptake ([^3H]5-HT uptake) (Rattus norvegicus, UniProt P31652); conditions: cited from earlier work
# T4 construct: The [^3H]5-HT uptake assays are performed on the cortical, hypothalamic and hippocampal synaptosomes; from tissue; host or cells: rat hypothalamic, cortical and hippocampal synaptosomes (P2 fraction)
# [7] = tested on: male F-344 rats subjected to water avoidance stress; assay: Water Avoidance Stress (WAS) model, fecal pellet output; format: in vivo, rat; conditions: for number of fecal pellets produced during 1 hour of WAS compared to vehicle: all doses i.p. (MCI-225, nisoxetine 3, 10, 30 mg/kg; ondansetron 1, 5, 10 mg/kg)
# Description: The model used in this example provided a method of determining the ability of MCI-225 to normalize accelerated colonic transit induced by water avoidance stress (WAS). […] The model provides a method of evaluating the effectiveness of a compound in a specific patient group of IBS sufferers where stress induced colonic motility is considered a significant contributing factor. All rats underwent sham stress (1-hour in stress chamber without water) for 2-4 consecutive days before undergoing WAS (sham was performed until rats produced 0-1 pellet per hour for 2 consecutive days). At the end of the 1-hour stress period, the fecal pellets were counted and recorded. WAS causes an acceleration of colonic transit, which can be quantified by counting the number of fecal pellets, produced during the stress procedure. Rats were placed for 1-hour into a stress chamber onto a raised platform 7.5 cm×7.5 cm×9 cm (L×W×H) in the center of a stress chamber filled with room temperature water 8 cm in depth. The stress chamber was constructed from a rectangular plastic tub (40.2×60.2×31.2 cm). […] Ondansetron was supplied from APIN Chemicals LTD. […] MCI-225 was provided by Mitsubishi Pharma Corp. All drugs were dissolved in a vehicle of 100% propylene glycol (1,2-propanediol) by sonicating for a period of 10 minutes. Propylene glycol was obtained from Sigma Chemical Co. […] All drugs and the vehicle were administered as an i.p. injection in a volume of 0.2 mL.
# T4 sequence (P31652 whole entry): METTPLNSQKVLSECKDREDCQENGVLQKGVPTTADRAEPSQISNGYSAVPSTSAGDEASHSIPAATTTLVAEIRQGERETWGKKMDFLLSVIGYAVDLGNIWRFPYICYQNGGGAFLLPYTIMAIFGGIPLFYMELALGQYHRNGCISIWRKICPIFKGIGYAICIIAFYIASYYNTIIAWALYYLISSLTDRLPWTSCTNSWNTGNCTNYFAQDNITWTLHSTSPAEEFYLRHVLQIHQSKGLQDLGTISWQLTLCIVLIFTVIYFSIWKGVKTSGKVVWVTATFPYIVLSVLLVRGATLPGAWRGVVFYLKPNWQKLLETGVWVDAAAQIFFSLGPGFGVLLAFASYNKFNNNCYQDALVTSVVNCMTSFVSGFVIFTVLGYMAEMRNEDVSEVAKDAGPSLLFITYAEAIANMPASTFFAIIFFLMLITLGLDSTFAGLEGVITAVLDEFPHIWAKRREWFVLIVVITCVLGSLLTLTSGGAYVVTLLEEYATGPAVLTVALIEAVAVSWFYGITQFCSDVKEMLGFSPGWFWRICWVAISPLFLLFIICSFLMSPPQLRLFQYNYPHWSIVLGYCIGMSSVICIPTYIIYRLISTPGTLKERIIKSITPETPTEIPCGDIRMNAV
# T1 sequence (Q9WTR4 1-597): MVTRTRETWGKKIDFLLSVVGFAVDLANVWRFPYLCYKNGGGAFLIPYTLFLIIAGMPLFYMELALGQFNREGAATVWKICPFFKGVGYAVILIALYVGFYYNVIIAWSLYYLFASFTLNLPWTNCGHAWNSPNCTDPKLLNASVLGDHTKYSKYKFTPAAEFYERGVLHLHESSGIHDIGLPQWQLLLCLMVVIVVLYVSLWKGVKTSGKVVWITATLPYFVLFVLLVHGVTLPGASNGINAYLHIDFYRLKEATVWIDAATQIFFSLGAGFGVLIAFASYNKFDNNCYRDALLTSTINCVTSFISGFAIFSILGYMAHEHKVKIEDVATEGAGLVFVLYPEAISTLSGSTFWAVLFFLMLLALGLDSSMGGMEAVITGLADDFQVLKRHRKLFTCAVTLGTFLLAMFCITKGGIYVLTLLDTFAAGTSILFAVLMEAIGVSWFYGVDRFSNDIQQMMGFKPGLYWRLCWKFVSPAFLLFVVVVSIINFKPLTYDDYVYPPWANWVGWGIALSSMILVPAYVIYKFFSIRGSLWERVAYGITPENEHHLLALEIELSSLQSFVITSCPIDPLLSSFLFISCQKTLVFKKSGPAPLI
# T2 sequence (P23977 whole entry): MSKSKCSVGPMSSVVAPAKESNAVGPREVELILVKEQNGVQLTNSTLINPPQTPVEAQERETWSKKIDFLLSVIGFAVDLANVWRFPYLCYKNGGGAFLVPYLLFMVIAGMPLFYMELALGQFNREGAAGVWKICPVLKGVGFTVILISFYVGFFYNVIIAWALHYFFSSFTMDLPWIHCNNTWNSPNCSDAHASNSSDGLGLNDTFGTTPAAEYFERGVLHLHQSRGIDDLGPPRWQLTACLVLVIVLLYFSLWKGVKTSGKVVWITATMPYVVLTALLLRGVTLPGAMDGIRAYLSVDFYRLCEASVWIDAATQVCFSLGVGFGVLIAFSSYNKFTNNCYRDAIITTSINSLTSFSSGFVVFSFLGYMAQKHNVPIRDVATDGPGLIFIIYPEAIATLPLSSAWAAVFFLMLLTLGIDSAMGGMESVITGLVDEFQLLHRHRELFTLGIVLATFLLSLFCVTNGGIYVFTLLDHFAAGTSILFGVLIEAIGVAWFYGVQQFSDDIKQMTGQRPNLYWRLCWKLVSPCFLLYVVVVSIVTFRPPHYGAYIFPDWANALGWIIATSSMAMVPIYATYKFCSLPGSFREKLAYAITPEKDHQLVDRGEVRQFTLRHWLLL
compound,measurement,setting,value
"Cc1cc2c(-c3ccccc3F)nc(N3CCNCC3)nc2s1 [MCI-225, 4-(2-fluorophenyl)-6-methyl-2-(1-piperazinyl)thieno[2,3-d]pyrimidine]",animals in which the visceromotor response to CRD was eliminated,"[1]; Example 1, 30 mg/kg i.p., n=6, CRD 15, 30, 60 mmHg",50%
same,Ki,[2]; synaptosomes from rat cortical tissue,0.696 nM
same,Ki,[2]; synaptosomes from rat hypothalamic tissue,35 nM
same,Ki,[3],14800 nM
same,Ki,[4],< 100 nM
same,"Small intestinal transit, Mean (% of total small intestinal length)",[5]; 3 mg/kg i.p.,30.1%
same,"Small intestinal transit, Mean (% of total small intestinal length)",[5]; 10 mg/kg i.p.,4.2±2.6% and 4.2%
same,"Small intestinal transit, Mean (% of total small intestinal length)",[5]; 30 mg/kg i.p.,8.8%
same,Ki,"[6]; synaptosomes from rat cortical tissue, read-out: Ki, inhibition of [3H]5-HT uptake",1070 nM
same,Ki,"[6]; synaptosomes from rat hippocampal tissue, read-out: Ki, inhibition of serotonin uptake",244 nM
same,Ki,"[6]; synaptosomes from rat hypothalamic tissue, read-out: Ki, inhibition of [3H]5-HT uptake",491 nM
CNCCC(Oc1ccccc1OC)c1ccccc1 (stereo not drawn) [Nisoxetine],number of fecal pellets produced during WAS compared to vehicle,[7]; 10 and 30 mg/kg i.p.,significantly fewer
same,number of fecal pellets produced during 1 hour of WAS compared to vehicle,[7],reduced by all doses
same,behavior in the home cage during the experiments,"[1]; Example 2, 30 mg/kg i.p.",increased exploratory behavior
same,visceromotor response (number of abdominal contractions) to CRD compared to vehicle,[1]; Example 2,no significant effect
same,"Small intestinal transit, Mean (% of total small intestinal length)",[5]; 3 mg/kg i.p.,40.3%
same,"Small intestinal transit, Mean (% of total small intestinal length)",[5]; 10 mg/kg i.p.,38.6%
same,animals with charcoal meal completely retained in the stomach,[5]; 30 mg/kg i.p.,4 out of 5
same,small intestinal transit,[5]; 30 mg/kg i.p.,almost completely inhibited
same,"Small intestinal transit, Mean (% of total small intestinal length)",[5]; 30 mg/kg i.p.,4.7%
same,small intestinal transit,[5]; 3 or 10 mg/kg i.p.,tendency to decrease
Cc1nccn1CC1CCc2c(c3ccccc3n2C)C1=O (stereo not drawn) [Ondansetron],number of fecal pellets produced during 1 hour of WAS compared to vehicle,[7],significantly less
same,visceromotor response (number of abdominal contractions) to CRD compared to vehicle,[1]; Example 2,significant dose-dependent inhibition
same,changes in behavioral activity of the rats,"[1]; Example 2, following treatment 1, 5 or 10 mg/kg i.p.",No significant changes
same,responses to moderate and high intraluminal pressure,"[1]; Example 2, highest dose 10 mg/kg i.p., 30 and 60 mmHg, responses not abolished",reduced these responses to levels characteristic for naïve non-sensitized rats
same,"Small intestinal transit, Mean (% of total small intestinal length)",[5]; 1 mg/kg i.p.,27.6%
same,"Small intestinal transit, Mean (% of total small intestinal length)",[5]; 5 mg/kg i.p.,32.1%
same,"Small intestinal transit, Mean (% of total small intestinal length)",[5]; 10 mg/kg i.p.,18.4%%
same,small intestinal transit compared to vehicle,"[5]; across doses i.p. (MCI-225 3, 10, 30 mg/kg; ondansetron 1, 5, 10 mg/kg)",significant reduction
same,advance of the charcoal meal from the stomach into the small intestine,[5]; doses tested i.p.,a portion of the charcoal meal was always found to advance
